# Test results published in US8906852B2 (MethylGene Inc., priority 2010, dated 2014).
# Target: T1, VEGFR/KDR (Homo sapiens, UniProt P35968)
# T1 construct: made in house; host or cells: Sf9 cells (Spodoptera frugiperda), baculovirus
# Test: VEGFR/KDR kinase inhibition, DELFIA assay
# Type: biochemical
# Conditions: ATP 0.6 uM (2x Km), enzyme 5 nM
# Outline: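 Enzyme (5 nM) pre-incubated 4 min on ice with inhibitor and Mg-ATP (0.6 uM, 2× Km), then reacted 10-30 min at 30° C on immobilized poly(Glu4,Tyr). EDTA-quenched phosphotyrosine detected with Europium-labeled antibody by time-resolved fluorescence; IC50 from concentration series.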
# T1 sequence (P35968 806-1356): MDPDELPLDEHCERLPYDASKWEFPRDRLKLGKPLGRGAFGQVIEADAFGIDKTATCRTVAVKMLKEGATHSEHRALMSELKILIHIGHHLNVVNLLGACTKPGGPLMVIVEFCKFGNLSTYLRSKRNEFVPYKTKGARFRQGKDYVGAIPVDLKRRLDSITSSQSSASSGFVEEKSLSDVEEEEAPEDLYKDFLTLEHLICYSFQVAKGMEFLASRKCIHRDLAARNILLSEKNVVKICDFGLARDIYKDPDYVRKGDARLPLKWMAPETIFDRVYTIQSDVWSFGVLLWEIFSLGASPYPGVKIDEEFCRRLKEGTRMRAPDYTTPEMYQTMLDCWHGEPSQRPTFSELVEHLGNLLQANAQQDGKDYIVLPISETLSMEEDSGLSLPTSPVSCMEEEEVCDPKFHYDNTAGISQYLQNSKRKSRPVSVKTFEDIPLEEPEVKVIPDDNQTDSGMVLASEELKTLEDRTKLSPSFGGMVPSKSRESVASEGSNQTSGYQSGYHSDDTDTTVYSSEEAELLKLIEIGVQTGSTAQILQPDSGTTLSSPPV
row,IC50 [nM],Structure (SMILES)
1,< 50,"CC(=O)OCC(=O)N1CCN(Cc2ccc(-c3cc4nccc(Oc5ccc(NC(=O)NC6CC6)cc5F)c4s3)nc2)CC1 [Compound 310, 2-(4-((6-(7-(4-(3-cyclopropylureido)-2-fluorophenoxy)thieno[3,2-b]pyridin-2-yl)pyridin-3-yl)methyl)piperazin-1-yl)-2-oxoethyl acetate]"
2,< 50,"O=C(Nc1ccc(Oc2ccnc3cc(-c4ccc(CN5CC6CNCC6C5)cn4)sc23)c(F)c1)NC1CC1 (centres unmarked) [Compound 311, 1-cyclopropyl-3-(3-fluoro-4-(2-(5-((hexahydropyrrolo[3,4-c]pyrrol-2(1H)-yl)methyl)pyridin-2-yl)thieno[3,2-b]pyridin-7-yloxy)phenyl)urea]"
3,< 50,"O=C(Nc1ccc(Oc2ccnc3cc(-c4ccc(CN5CCC(F)(F)C5)cn4)sc23)c(F)c1)NC1CC1 [Compound 315, 1-cyclopropyl-3-(4-(2-(5-((3,3-difluoropyrrolidin-1-yl)methyl)pyridin-2-yl)thieno[3,2-b]pyridin-7-yloxy)-3-fluorophenyl)urea]"
4,< 50,"O=C(Nc1ccc(Oc2ccnc3cc(-c4ccc(CN5CC[C@H](F)C5)cn4)sc23)c(F)c1)NC1CC1 [Compound 323, (S)-1-cyclopropyl-3-(3-fluoro-4-(2-(5-((3-fluoropyrrolidin-1-yl)methyl)pyridin-2-yl)thieno[3,2-b]pyridin-7-yloxy)phenyl)urea]"
5,< 50,"O=C(Nc1ccc(Oc2ccnc3cc(-c4ccc(CN5CCN(Cc6cccnc6)CC5)cn4)sc23)c(F)c1)NC1CC1 [Compound 324, 1-cyclopropyl-3-(3-fluoro-4-(2-(5-((4-(pyridin-3-ylmethyl)piperazin-1-yl)methyl)pyridin-2-yl)thieno[3,2-b]pyridin-7-yloxy)phenyl)urea]"
6,< 50,"O=C(Nc1ccc(Oc2ccnc3cc(-c4ccc(CN5CCN(Cc6ccncc6)CC5)cn4)sc23)c(F)c1)NC1CC1 [Compound 325, 1-cyclopropyl-3-(3-fluoro-4-(2-(5-((4-(pyridin-4-ylmethyl)piperazin-1-yl)methyl)pyridin-2-yl)thieno[3,2-b]pyridin-7-yloxy)phenyl)urea]"
7,< 50,"O=C(Nc1ccc(Oc2ccnc3cc(-c4ccc(CN5CCN(Cc6ccccn6)CC5)cn4)sc23)c(F)c1)NC1CC1 [Compound 326, 1-cyclopropyl-3-(3-fluoro-4-(2-(5-((4-(pyridin-2-ylmethyl)piperazin-1-yl)methyl)pyridin-2-yl)thieno[3,2-b]pyridin-7-yloxy)phenyl)urea]"
8,< 50,O=C(Nc1ccc(Oc2ccnc3cc(-c4ccc(CN5CCN(CCOCCO)CC5)cn4)sc23)c(F)c1)NC1CC1 [Compound 327]
9,< 50,"COC(=O)COC1CCN(Cc2ccc(-c3cc4nccc(Oc5ccc(NC(=O)NC6CC6)cc5F)c4s3)nc2)CC1 [Compound 328, methyl 2-(1-((6-(7-(4-(3-cyclopropylureido)-2-fluorophenoxy)thieno [3,2-b]pyridin-2-yl)pyridin-3-yl)methyl)piperidin-4-yloxy)acetate]"
10,< 50,"O=C(O)COC1CCN(Cc2ccc(-c3cc4nccc(Oc5ccc(NC(=O)NC6CC6)cc5F)c4s3)nc2)CC1 [Compound 329, 2-(1-((6-(7-(4-(3-cyclopropylureido)-2-fluorophenoxy)thieno[3,2-b]pyridin-2-yl)pyridin-3-yl)mcthyI)piperidin-4-yloxy)acetic acid]"
11,< 50,"O=C(O)CCC1CCN(Cc2ccc(-c3cc4nccc(Oc5ccc(NC(=O)NC6CC6)cc5F)c4s3)nc2)CC1 [Compound 330, 3-(1-((6-(7-(4-(3-cyclopropylureido)-2-fluorophenoxy)thieno[3,2-b]pyridin-2-yl)pyridin-3-yl)methyl)piperidin-4-yl)propanoic acid]"
12,< 50,"O=C(Nc1ccc(Oc2ccnc3cc(-c4ccc(CNc5ccc(OCCN6CCOCC6)cc5)cn4)sc23)c(F)c1)NC1CC1 [Compound 331, 1-Cyclopropyl-3-(3-fluoro-4-(2-(5-((4-(2-morpholinoethoxy)phenylamino)methyl)pyridin-2-yl)thieno[3,2-b]pyridin-7-yloxy)phenyl)urea]"
13,< 50,"O=C(Nc1ccc(Oc2ccnc3cc(-c4ccc(CNc5cc[nH]n5)cn4)sc23)c(F)c1)NC1CC1 [Compound 332, 1-(4-(2-(5-((1H-Pyrazol-3-ylamino)methyl)pyridin-2-yl)thieno[3,2-b]pyridin-7-yloxy)-3-fluorophenyl)-3-cyclopropylurea]"
14,< 50,"Cc1cc(NCc2ccc(-c3cc4nccc(Oc5ccc(NC(=O)NC6CC6)cc5F)c4s3)nc2)n[nH]1 [Compound 333, 1-Cyclopropyl-3-(3-fluoro-4-(2-(5-((5-methyl-1H-pyrazol-3-ylamino)methyl)pyridin-2-yl)thieno[3,2-b]pyridin-7-yloxy)phenyl)urea]"
15,< 50,"Cn1ccc(NCc2ccc(-c3cc4nccc(Oc5ccc(NC(=O)NC6CC6)cc5F)c4s3)nc2)n1 [Compound 334, 1-Cyclopropyl-3-(3-fluoro-4-(2-(5-((1-methyl-1H-pyrazol-3-ylamino)methyl)pyridin-2-yl)thieno[3,2-b]pyridin-7-yloxy)phenyl)urea]"
16,< 50,"Cc1cc(NCc2ccc(-c3cc4nccc(Oc5ccc(NC(=O)NC6CC6)cc5F)c4s3)nc2)nn1C [Compound 335, 1-cyclopropyl-3-(4-(2-(5-((1,5-dimethyl-1H-pyrazol-3-ylamino)methyl)pyridin-2-yl)thieno[3,2-b]pyridin-7-yloxy)-3-fluorophenyl)urea]"
17,< 50,"CN(C)CCCc1ccc(NCc2ccc(-c3cc4nccc(Oc5ccc(NC(=O)NC6CC6)cc5F)c4s3)nc2)cc1 [Compound 339, 1-cyclopropyl-3-(4-(2-(5-((4-(3-(dimethylamino)propyl)phenylamino)methyl)pyridin-2-yl)thieno[3,2-b]pyridin-7-yloxy)-3-fluorophenyl)urea]"
18,< 50,"CCN(CC)CCNC(=O)c1ccc(NCc2ccc(-c3cc4nccc(Oc5ccc(NC(=O)NC6CC6)cc5F)c4s3)nc2)cc1 [Compound 340, 4-((6-(7-(4-(3-cyclopropylureido)-2-fluorophenoxy)thieno[3,2-b]pyridin-2-yl)pyridin-3-yl)methylamino)-N-(2-(diethylamino)ethyl)benzamide]"
19,< 50,"O=C(Nc1ccc(Oc2ccnc3cc(-c4ccc(CNc5cccc(OCCN6CCOCC6)c5)cn4)sc23)c(F)c1)NC1CC1 [Compound 341, 1-cyclopropyl-3-(3-fluoro-4-(2-(5-((3-(2-morpholinoethoxy)phenylamino)methyl)pyridin-2-yl)thieno[3,2-b]pyridin-7-yloxy)phenyl)urea]"

row,IC50 [nM],Structure (SMILES)
1,< 50,"NC1CCN(Cc2ccc(-c3cc4nccc(Oc5ccc(NC(=O)NC6CC6)cc5F)c4s3)nc2)CC1 [Compound 343, 1-(4-(2-(5-((4-Aminopiperidin-1-yl)methyl)pyridin-2-yl)thieno[3,2-b]pyridin-7-yloxy)-3-fluorophenyl)-3-cyclopropylurea]"
2,< 50,CC(=O)NC1CCN(Cc2ccc(-c3cc4nccc(Oc5ccc(NC(=O)NC6CC6)cc5F)c4s3)nc2)CC1 [Compound 344]
3,< 50,CC(=O)OCC(=O)NC1CCN(Cc2ccc(-c3cc4nccc(Oc5ccc(NC(=O)NC6CC6)cc5F)c4s3)nc2)CC1 [Compound 345]
4,< 50,O=C(CO)NC1CCN(Cc2ccc(-c3cc4nccc(Oc5ccc(NC(=O)NC6CC6)cc5F)c4s3)nc2)CC1 [Compound 346]
5,< 50,O=C(CCn1cncn1)NC1CCN(Cc2ccc(-c3cc4nccc(Oc5ccc(NC(=O)NC6CC6)cc5F)c4s3)nc2)CC1 [Compound 347]
6,< 50,O=C(CCc1cccnc1)NC1CCN(Cc2ccc(-c3cc4nccc(Oc5ccc(NC(=O)NC6CC6)cc5F)c4s3)nc2)CC1 [Compound 348]
7,< 50,O=C(CCO)NC1CCN(Cc2ccc(-c3cc4nccc(Oc5ccc(NC(=O)NC6CC6)cc5F)c4s3)nc2)CC1 [Compound 349]
8,< 50,CS(=O)(=O)NC1CCN(Cc2ccc(-c3cc4nccc(Oc5ccc(NC(=O)NC6CC6)cc5F)c4s3)nc2)CC1 [Compound 350]
9,< 50,CCOC(=O)NC1CCN(Cc2ccc(-c3cc4nccc(Oc5ccc(NC(=O)NC6CC6)cc5F)c4s3)nc2)CC1 [Compound 351]
10,< 50,CNC(=O)NC1CCN(Cc2ccc(-c3cc4nccc(Oc5ccc(NC(=O)NC6CC6)cc5F)c4s3)nc2)CC1 [Compound 352]
11,< 50,CCNC(=O)NC1CCN(Cc2ccc(-c3cc4nccc(Oc5ccc(NC(=O)NC6CC6)cc5F)c4s3)nc2)CC1 [Compound 353]
12,< 50,CCCNC(=O)NC1CCN(Cc2ccc(-c3cc4nccc(Oc5ccc(NC(=O)NC6CC6)cc5F)c4s3)nc2)CC1 [Compound 354]
13,< 50,CC(C)NC(=O)NC1CCN(Cc2ccc(-c3cc4nccc(Oc5ccc(NC(=O)NC6CC6)cc5F)c4s3)nc2)CC1 [Compound 355]
14,< 50,"CN1CCN(C(=O)NC2CCN(Cc3ccc(-c4cc5nccc(Oc6ccc(NC(=O)NC7CC7)cc6F)c5s4)nc3)CC2)CC1 [Compound 357, N-(1-((6-(7-(4-(3-Cyclopropylureido)-2-fluorophenoxy)thieno[3,2-b]pyridin-2-yl)pyridin-3-yl)methyl)piperidin-4-yl)-4-methylpiperazine-1-carboxamide]"
15,< 50,"CN(CCO)C(=O)NC1CCN(Cc2ccc(-c3cc4nccc(Oc5ccc(NC(=O)NC6CC6)cc5F)c4s3)nc2)CC1 [Compound 358, 1-Cyclopropyl-3-(3-fluoro-4-(2-(5-((4-((2-hydroxyethyl-methylamino)carbonylamino)piperidin-1-yl)methyl)pyridin-2-yl)thieno[3,2-b]pyridin-7-yloxy)phenyl)urea]"
16,< 50,CCN(CC)CCn1cc(-c2cc3nccc(Oc4ccc(NC(=O)NC5CC5)cc4F)c3s2)nn1 [Compound 363]
17,< 50,O=C(Nc1ccc(Oc2ccnc3cc(-c4cn(CCN5CCOCC5)nn4)sc23)c(F)c1)NC1CC1 [Compound 364]
18,< 50,CN1CCN(C(=O)Cn2cc(-c3cc4nccc(Oc5ccc(NC(=O)NC6CC6)cc5F)c4s3)nn2)CC1 [Compound 365]
19,50 to 100,CN(C)CCn1cc(-c2cc3nccc(Oc4ccc(NC(=O)NC5CC5)cc4F)c3s2)nn1 [Compound 367]
